Measurements as given in publication PMC7265341, “Quantifying CDK inhibitor selectivity in live cells” (Nature Communications, 2020).
Read-outs that look alike come from different tables or passages of the source.

Legend:
Assay type in all cases: binding
CDK16/Cyclin Y = CDK16/Cyclin Y (Homo sapiens, UniProt Q00536); experiment: NanoBRET live-cell target engagement, CDK16-NanoLuc/Cyclin Y in HEK-293; settings: CDK16/Y; for IC50: read-out: IC50
CDK17/Cyclin Y = CDK17/Cyclin Y (Homo sapiens, UniProt Q00537); experiment: NanoBRET live-cell target engagement, CDK17-NanoLuc/Cyclin Y in HEK-293; settings: CDK17/Y; for IC50: read-out: IC50
CDK20/Cyclin H = CDK20/Cyclin H (Homo sapiens, UniProt Q8IZL9); experiment: NanoBRET live-cell target engagement, NanoLuc-CDK20/Cyclin H in HEK-293; settings: CDK20/H
CDK9/Cyclin K = CDK9/Cyclin K (Homo sapiens, UniProt P50750); experiment: NanoBRET live-cell target engagement, NanoLuc-CDK9/Cyclin K in HEK-293; settings: CDK9/K
CDK6/Cyclin D1 = CDK6/Cyclin D1 (Homo sapiens, UniProt Q00534); experiment: NanoBRET live-cell target engagement, NanoLuc-CDK6/Cyclin D1 in HEK-293; settings: CDK6/D1; for IC50: read-out: IC50
CDK15/Cyclin Y = CDK15/Cyclin Y (Homo sapiens, UniProt Q96Q40); experiment: NanoBRET live-cell target engagement, NanoLuc-CDK15/Cyclin Y in HEK-293
CDK8/Cyclin C = CDK8/Cyclin C (Homo sapiens, UniProt P49336); experiment: NanoBRET live-cell target engagement, NanoLuc-CDK8/Cyclin C in HEK-293; settings: CDK8/C
CDK11B/Cyclin L2 = CDK11B/Cyclin L2 (Homo sapiens, UniProt P21127); experiment: NanoBRET live-cell target engagement, CDK11B-NanoLuc/Cyclin L2 in HEK-293; settings: CDK11b/L2; for IC50: read-out: IC50
CDK4/Cyclin D1 = CDK4/Cyclin D1 (Homo sapiens, UniProt P11802); experiment: NanoBRET live-cell target engagement, NanoLuc-CDK4/Cyclin D1 in HEK-293; settings: CDK4/D1; for IC50: read-out: IC50
CDK12/Cyclin K = CDK12/Cyclin K (Homo sapiens, UniProt Q9NYV4); experiment: NanoBRET live-cell target engagement, CDK12-NanoLuc/Cyclin K in HEK-293; settings: CDK12/K

CDK17/Cyclin Y, sequence (Q00537 whole entry): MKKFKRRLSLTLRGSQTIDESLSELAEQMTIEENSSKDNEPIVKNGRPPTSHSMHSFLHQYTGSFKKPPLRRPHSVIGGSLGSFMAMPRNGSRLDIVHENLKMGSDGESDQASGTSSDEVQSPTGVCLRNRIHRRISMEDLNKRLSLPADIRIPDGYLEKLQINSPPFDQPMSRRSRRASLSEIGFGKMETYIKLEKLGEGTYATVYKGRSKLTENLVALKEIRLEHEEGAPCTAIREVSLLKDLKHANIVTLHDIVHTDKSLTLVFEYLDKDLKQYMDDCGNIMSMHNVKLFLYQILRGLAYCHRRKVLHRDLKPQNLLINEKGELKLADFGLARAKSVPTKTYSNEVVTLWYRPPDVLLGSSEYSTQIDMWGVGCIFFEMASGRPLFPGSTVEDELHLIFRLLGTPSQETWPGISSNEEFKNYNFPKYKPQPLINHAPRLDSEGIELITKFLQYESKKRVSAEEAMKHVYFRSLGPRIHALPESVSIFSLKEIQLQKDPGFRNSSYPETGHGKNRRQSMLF
CDK17/Cyclin Y, sequence (Q8ND76 whole entry partner): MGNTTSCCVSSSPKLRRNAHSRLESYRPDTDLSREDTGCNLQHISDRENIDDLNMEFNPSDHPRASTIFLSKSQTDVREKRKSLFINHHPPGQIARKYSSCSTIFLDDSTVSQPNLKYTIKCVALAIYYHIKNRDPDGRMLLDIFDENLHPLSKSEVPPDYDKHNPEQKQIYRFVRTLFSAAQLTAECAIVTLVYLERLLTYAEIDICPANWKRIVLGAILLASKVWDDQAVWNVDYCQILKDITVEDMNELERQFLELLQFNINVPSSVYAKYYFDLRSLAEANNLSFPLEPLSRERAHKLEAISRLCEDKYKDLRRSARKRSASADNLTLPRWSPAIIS
CDK8/Cyclin C, sequence (P49336 whole entry): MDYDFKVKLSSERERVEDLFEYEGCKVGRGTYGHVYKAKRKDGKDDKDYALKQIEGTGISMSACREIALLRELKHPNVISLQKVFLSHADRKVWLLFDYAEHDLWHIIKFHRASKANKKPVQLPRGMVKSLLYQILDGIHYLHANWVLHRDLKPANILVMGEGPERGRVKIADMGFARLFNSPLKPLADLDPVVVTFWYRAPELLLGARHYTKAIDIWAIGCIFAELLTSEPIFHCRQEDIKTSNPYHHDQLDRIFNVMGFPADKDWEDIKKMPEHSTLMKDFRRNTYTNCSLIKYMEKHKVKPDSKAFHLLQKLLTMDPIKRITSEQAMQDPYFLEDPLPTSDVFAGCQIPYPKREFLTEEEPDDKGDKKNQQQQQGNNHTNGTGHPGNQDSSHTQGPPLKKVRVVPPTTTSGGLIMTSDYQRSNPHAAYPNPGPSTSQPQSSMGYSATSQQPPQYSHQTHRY
CDK8/Cyclin C, sequence (P24863 whole entry partner): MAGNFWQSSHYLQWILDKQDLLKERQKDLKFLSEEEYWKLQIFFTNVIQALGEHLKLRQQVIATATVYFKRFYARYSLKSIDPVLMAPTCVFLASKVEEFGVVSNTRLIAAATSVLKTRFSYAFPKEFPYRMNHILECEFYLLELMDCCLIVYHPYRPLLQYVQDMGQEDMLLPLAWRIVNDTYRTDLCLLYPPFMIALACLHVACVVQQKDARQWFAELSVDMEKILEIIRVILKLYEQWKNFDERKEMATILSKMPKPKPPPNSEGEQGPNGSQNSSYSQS
CDK15/Cyclin Y, sequence (Q96Q40 whole entry): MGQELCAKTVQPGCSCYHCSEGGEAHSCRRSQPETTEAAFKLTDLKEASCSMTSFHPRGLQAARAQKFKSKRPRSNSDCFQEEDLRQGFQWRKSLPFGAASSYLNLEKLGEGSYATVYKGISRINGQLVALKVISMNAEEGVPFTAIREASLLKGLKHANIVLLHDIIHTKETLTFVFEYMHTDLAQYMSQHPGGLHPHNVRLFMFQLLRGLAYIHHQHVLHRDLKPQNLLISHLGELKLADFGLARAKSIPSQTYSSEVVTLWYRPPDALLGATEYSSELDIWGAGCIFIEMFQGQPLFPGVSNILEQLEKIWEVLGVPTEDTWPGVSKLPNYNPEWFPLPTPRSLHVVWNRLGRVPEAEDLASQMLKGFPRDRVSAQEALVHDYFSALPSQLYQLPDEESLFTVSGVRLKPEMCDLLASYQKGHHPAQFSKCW
CDK15/Cyclin Y, sequence (Q8ND76 whole entry partner): as the sequence (Q8ND76 whole entry partner) above
CDK9/Cyclin K, sequence (P50750 whole entry): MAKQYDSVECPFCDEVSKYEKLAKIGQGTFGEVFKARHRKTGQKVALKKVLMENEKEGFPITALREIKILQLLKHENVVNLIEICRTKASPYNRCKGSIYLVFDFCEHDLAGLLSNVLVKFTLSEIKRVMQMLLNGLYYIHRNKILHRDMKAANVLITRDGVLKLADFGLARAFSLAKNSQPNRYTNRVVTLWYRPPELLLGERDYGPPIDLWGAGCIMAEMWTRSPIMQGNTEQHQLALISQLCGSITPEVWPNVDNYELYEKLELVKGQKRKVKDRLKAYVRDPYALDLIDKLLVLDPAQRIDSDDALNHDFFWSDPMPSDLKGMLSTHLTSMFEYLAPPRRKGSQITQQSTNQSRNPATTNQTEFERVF
CDK9/Cyclin K, sequence (O75909 whole entry partner): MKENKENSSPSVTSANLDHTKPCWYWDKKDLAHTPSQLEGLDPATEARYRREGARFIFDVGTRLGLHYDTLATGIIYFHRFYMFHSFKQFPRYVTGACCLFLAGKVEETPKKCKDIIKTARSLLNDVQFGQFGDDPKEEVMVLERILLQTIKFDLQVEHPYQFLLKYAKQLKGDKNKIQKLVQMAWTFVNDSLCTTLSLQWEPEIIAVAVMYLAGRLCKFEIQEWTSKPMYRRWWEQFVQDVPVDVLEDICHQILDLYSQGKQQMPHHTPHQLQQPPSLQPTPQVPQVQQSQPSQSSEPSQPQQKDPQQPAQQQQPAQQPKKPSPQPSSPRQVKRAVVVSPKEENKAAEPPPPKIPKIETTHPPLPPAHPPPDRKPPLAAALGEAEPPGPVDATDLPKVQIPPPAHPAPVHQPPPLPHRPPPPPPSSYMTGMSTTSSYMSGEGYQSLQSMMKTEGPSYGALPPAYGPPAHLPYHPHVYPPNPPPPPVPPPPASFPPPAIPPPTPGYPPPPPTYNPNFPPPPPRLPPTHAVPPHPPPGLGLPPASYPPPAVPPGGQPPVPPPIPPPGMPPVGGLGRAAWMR
CDK4/Cyclin D1, sequence (P11802 whole entry): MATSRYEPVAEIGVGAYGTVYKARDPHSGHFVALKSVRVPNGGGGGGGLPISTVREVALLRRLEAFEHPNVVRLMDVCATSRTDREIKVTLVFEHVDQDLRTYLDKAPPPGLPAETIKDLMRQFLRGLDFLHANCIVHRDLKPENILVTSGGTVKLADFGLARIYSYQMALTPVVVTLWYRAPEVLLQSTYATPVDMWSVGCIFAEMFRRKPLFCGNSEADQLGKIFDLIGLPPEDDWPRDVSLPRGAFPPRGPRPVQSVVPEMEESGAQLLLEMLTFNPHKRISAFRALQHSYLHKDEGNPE
CDK4/Cyclin D1, sequence (P24385 whole entry partner): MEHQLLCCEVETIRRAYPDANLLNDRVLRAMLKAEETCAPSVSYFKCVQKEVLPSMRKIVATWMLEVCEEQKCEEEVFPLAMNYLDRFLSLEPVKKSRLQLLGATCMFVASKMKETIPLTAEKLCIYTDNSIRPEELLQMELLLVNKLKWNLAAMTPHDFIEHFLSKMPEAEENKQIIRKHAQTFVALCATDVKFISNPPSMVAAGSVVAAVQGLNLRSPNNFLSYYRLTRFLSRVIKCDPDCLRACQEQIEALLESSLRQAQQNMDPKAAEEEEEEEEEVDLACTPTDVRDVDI
CDK11B/Cyclin L2, sequence (P21127 1-782 isoform P21127-2): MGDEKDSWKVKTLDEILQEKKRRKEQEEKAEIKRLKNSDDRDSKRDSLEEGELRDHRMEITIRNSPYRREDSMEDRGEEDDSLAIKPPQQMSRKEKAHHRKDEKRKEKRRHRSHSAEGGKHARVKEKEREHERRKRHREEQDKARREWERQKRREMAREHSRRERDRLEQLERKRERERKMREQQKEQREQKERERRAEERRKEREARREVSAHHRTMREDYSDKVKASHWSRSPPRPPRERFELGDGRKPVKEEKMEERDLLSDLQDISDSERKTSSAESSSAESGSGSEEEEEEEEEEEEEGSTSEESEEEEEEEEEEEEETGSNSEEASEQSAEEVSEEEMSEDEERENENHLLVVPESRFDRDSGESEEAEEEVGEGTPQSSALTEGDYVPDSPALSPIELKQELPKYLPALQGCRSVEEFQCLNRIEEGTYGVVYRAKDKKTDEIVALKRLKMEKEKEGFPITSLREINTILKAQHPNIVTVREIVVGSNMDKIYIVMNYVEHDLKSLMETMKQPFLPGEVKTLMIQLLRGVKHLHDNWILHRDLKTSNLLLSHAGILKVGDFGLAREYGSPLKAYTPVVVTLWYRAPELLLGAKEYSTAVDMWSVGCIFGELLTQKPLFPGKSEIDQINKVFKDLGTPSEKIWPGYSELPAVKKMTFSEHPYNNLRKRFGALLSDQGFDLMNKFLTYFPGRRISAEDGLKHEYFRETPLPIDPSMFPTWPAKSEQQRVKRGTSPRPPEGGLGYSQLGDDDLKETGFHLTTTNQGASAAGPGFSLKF
CDK16/Cyclin Y, sequence (Q00536 whole entry): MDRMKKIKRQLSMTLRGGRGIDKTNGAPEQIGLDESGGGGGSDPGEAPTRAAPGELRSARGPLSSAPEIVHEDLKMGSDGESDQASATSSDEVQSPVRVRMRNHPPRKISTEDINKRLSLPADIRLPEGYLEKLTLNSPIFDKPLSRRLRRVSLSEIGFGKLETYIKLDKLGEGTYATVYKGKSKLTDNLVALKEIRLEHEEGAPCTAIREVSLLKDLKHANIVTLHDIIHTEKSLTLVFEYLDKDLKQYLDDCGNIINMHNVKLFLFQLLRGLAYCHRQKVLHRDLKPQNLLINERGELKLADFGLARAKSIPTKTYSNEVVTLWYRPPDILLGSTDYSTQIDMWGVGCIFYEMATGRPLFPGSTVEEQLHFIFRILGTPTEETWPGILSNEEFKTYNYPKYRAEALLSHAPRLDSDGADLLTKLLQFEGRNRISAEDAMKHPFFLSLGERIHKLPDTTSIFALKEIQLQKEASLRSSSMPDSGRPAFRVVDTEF
CDK16/Cyclin Y, sequence (Q8ND76 whole entry partner): as the sequence (Q8ND76 whole entry partner) above

In the case of `CC(C)c1cnn2c(NCc3ccccc3-n3cccn3)nc(OC3CCCNC3)nc12` (centres unmarked) [LDC4297], the IC50 (CDK16/Cyclin Y; average (± SEM where n=3)) is reported as 400 ± 30 nM, the “Inhibition at 10µM (%)” value (CDK16/Cyclin Y; experiment 1) is reported as 87.3% and the IC50 (CDK16/Cyclin Y; experiment 1) is reported as 332 nM. The “Inhibition at 10µM (%)” value (CDK16/Cyclin Y; experiment 2) was 88.6%, the IC50 (CDK16/Cyclin Y; experiment 2) was 430 nM and the IC50 (CDK16/Cyclin Y; experiment 3) was 428 nM. For the same molecule, the “Inhibition at 10µM (%)” value (CDK17/Cyclin Y; average) was 90.8%, the IC50 (CDK17/Cyclin Y; average (± SEM where n=3)) was 200 ± 20 nM and the “Inhibition at 10µM (%)” value (CDK17/Cyclin Y; experiment 1) was 89.8%. The IC50 (CDK17/Cyclin Y; experiment 1) was 194 nM, the “Inhibition at 10µM (%)” value (CDK17/Cyclin Y; experiment 2) was 91.8% and the IC50 (CDK17/Cyclin Y; experiment 2) was 170 nM. For the same molecule, the IC50 (CDK17/Cyclin Y; experiment 3) was 242 nM, the “Inhibition at 10µM (%)” value (CDK20/Cyclin H; experiment 1) was 53.8% and the “Inhibition at 10µM (%)” value (CDK20/Cyclin H; experiment 2) was 57.6%. For the same molecule, the “Inhibition at 10µM (%)” value (CDK9/Cyclin K; average) was 42.4%, the “Inhibition at 10µM (%)” value (CDK9/Cyclin K; experiment 1) was 42.8% and the “Inhibition at 10µM (%)” value (CDK9/Cyclin K; experiment 2) was 42.0%. The “Inhibition at 10µM (%)” value (CDK6/Cyclin D1; average) was 27.5%, the IC50 (CDK6/Cyclin D1; average (± SEM where n=3)) was 110 ± 80 nM and the “Inhibition at 10µM (%)” value (CDK6/Cyclin D1; experiment 1) was 31.4%. For the same molecule, the IC50 (CDK6/Cyclin D1; experiment 1) was 9 nM, the “Inhibition at 10µM (%)” value (CDK6/Cyclin D1; experiment 2) was 23.6% and the IC50 (CDK6/Cyclin D1; experiment 2) was 270 nM. For the same molecule, the IC50 (CDK6/Cyclin D1; experiment 3) was 50 nM, the “Inhibition at 10µM (%)” value (CDK15/Cyclin Y; CDK15/Y, average) was 95.3% and the IC50 (CDK15/Cyclin Y; CDK15/Y, average (± SEM where n=3), read-out: IC50) was 220 ± 20 nM. For the same molecule, the “Inhibition at 10µM (%)” value (CDK15/Cyclin Y; CDK15/Y, experiment 1) was 95.2%, the IC50 (CDK15/Cyclin Y; CDK15/Y, experiment 1, read-out: IC50) was 220 nM and the “Inhibition at 10µM (%)” value (CDK15/Cyclin Y; CDK15/Y, experiment 2) was 95.3%. It also gave an IC50 (CDK15/Cyclin Y; CDK15/Y, experiment 2, read-out: IC50) of 260 nM, an IC50 (CDK15/Cyclin Y; CDK15/Y, experiment 3, read-out: IC50) of 193 nM and an IC50 (CDK15/Cyclin Y; live HEK-293, 2 h, mean ± S.E.M. (n=3) or mean (n=2), read-out: IC50 for CDK/cyclin complexes, CDK15/Y) of 220 ± 20 nM. For the same molecule, the “Inhibition at 10µM (%)” value (CDK8/Cyclin C; average) was 3.8%, the “Inhibition at 10µM (%)” value (CDK8/Cyclin C; experiment 1) was 14.8% and the “Inhibition at 10µM (%)” value (CDK8/Cyclin C; experiment 2) was -7.1%. The “Inhibition at 10µM (%)” value (CDK11B/Cyclin L2; average) was 53.6%, the IC50 (CDK11B/Cyclin L2; average (± SEM where n=3)) was 760 ± 60 nM and the “Inhibition at 10µM (%)” value (CDK11B/Cyclin L2; experiment 1) was 54.6%. The IC50 (CDK11B/Cyclin L2; experiment 1) was 876 nM, the “Inhibition at 10µM (%)” value (CDK11B/Cyclin L2; experiment 2) was 52.6% and the IC50 (CDK11B/Cyclin L2; experiment 2) was 685 nM. For the same molecule, the IC50 (CDK11B/Cyclin L2; experiment 3) was 732 nM, the “Inhibition at 10µM (%)” value (CDK4/Cyclin D1; average) was 58.1% and the IC50 (CDK4/Cyclin D1; average (± SEM where n=3)) was 80 ± 30 nM. The “Inhibition at 10µM (%)” value (CDK4/Cyclin D1; experiment 1) was 52.3%, the IC50 (CDK4/Cyclin D1; experiment 1) was 20 nM and the “Inhibition at 10µM (%)” value (CDK4/Cyclin D1; experiment 2) was 64.0%. The IC50 (CDK4/Cyclin D1; experiment 2) was 100 nM, the IC50 (CDK4/Cyclin D1; experiment 3) was 104 nM and the “Inhibition at 10µM (%)” value (CDK12/Cyclin K; average) was 18.0%. For the same molecule, the “Inhibition at 10µM (%)” value (CDK12/Cyclin K; experiment 1) was 25.5% and the “Inhibition at 10µM (%)” value (CDK12/Cyclin K; experiment 2) was 10.4%.
